Legend:
[1] = Drug concentration in rat at 2 mg/kg, po measured after 24 hrs; format: ADME, organism-based; conditions: in vivo; for concentration at 24 h: read-out: Drug uptake; for Drug uptake: po, 2 mg/kg, 24 h, BLD = below limit of detection
[2] = AUClast in rat at 2 mg/kg, po; format: ADME, organism-based; set-up: time 0 - last, dose 2 mg/kg, route po; conditions: in vivo
[3] = Oral bioavailability in dog at 1 mg/kg; format: ADME, organism-based, Canis lupus familiaris; conditions: in vivo
[4] = Volume of distribution at steady state in rat at 2 mg/kg, po or 0.5 mg/kg, iv; format: ADME, organism-based; conditions: in vivo
[5] = Oral bioavailability in cynomolgus monkey at 1 mg/kg; format: ADME, organism-based, Macaca fascicularis; conditions: in vivo
[6] = Volume of distribution at steady state in cynomolgus monkey at 1 mg/kg, po or 0.5 mg/kg, iv; format: ADME, organism-based, Macaca fascicularis; conditions: in vivo
[7] = Volume of distribution at steady state in dog at 1 mg/kg, po or 0.5 mg/kg, iv; format: ADME, organism-based, Canis lupus familiaris; conditions: in vivo
[8] = Oral bioavailability in rat at 2 mg/kg; format: ADME, organism-based; conditions: in vivo

concentration at 24 h [1] | AUC(0-t) [2] | Structure (SMILES) | further results
1.8 nM | 0.58 µM·h | COc1cc(OCc2csc(-c3ccc(C(=O)N4CCC(F)(F)C4)cc3)n2)c2cc(-c3cn4nc(OC)sc4n3)oc2c1 | 
13 nM | 0.91 µM·h | COc1cc(OCc2cccc(-c3ccc(C#N)cn3)c2)c2cc(-c3cn4nc(OC)sc4n3)oc2c1 | 
4.7 nM |  | COc1cc(OCc2csc(-c3ccc(C(=O)N(C)C)cc3)n2)c2cc(-c3cn4nc(OC)sc4n3)oc2c1 [BMS-986141] | bioavailability [3]: 25%; Vdss [4]: 2.7 L/kg; bioavailability [5]: 36%; AUClast [2]: 3.1 µM·h; Vdss [6]: 14 L/kg; Vdss [7]: 2.7 L/kg; F [8]: 31%
7.7 nM | 1.4 µM·h | COc1cc(OCc2cccc(-c3cnc(OC)cn3)c2)c2cc(-c3cn4nc(OC)sc4n3)oc2c1 | 
89 nM | 8 µM·h | COc1cc(OCc2csc(-c3ccccc3)n2)c2cc(-c3cn4nc(OC)sc4n3)oc2c1 | 
49 nM | 5 µM·h | COc1cc(OCc2csc(N3CCCOCC3)n2)c2cc(-c3cn4nc(OC)sc4n3)oc2c1 | 
 | 0.04 µM·h | CNC(=O)c1ccc(-c2nc(COc3cc(OC)cc4oc(-c5cn6nc(OC)sc6n5)cc34)cs2)cc1 | Drug uptake [1]: Bld
13 nM | 1.2 µM·h | COc1cc(OCc2cccc(-c3ccc(C#N)cc3)c2)c2cc(-c3cn4nc(OC)sc4n3)oc2c1 | 
340 nM | 21.6 µM·h | COc1cc(OCc2csc(N3CCCCC3)n2)c2cc(-c3cn4nc(OC)sc4n3)oc2c1 | 
29 nM | 2 µM·h | COc1cc(OCc2cccc(-c3cnc(OC)nc3)c2)c2cc(-c3cn4nc(OC)sc4n3)oc2c1 | 
21 nM | 0.8 µM·h | COc1cc(OCc2csc(C3CCC(F)(F)CC3)n2)c2cc(-c3cn4nc(OC)sc4n3)oc2c1 | 
240 nM | 16.2 µM·h | COc1cc(OCc2csc(N3CCOCC3)n2)c2cc(-c3cn4nc(OC)sc4n3)oc2c1 | 
69 nM | 13.1 µM·h | COc1cc(OCc2coc(N3CCOCC3)n2)c2cc(-c3cn4nc(OC)sc4n3)oc2c1 | 
14 nM | 2.4 µM·h | COc1cc(OCc2nc(N3CCOCC3)sc2C(F)(F)F)c2cc(-c3cn4nc(OC)sc4n3)oc2c1 | 
93 nM | 7.3 µM·h | COc1cc(OCc2cccc(N3CCOCC3)n2)c2cc(-c3cn4nc(OC)sc4n3)oc2c1 | 
5 nM | 1.8 µM·h | COc1cc(OCc2csc(N3CCN(C)CC3)n2)c2cc(-c3cn4nc(OC)sc4n3)oc2c1 | 
28 nM | 3.7 µM·h | COc1cc(OCc2csc(C3CCOCC3)n2)c2cc(-c3cn4nc(OC)sc4n3)oc2c1 | 

concentration at 24 h [1] | AUC(0-t) [2] | Structure (SMILES) | further results
 | 0.83 µM·h | COc1cc(OCc2cccc(-c3ccc(C(F)(F)F)cn3)c2)c2cc(-c3cn4nc(OC)sc4n3)oc2c1 | Drug uptake [1]: Bld
12 nM | 1.9 µM·h | COc1cc(OCc2csc(N3CC4CCC(C3)O4)n2)c2cc(-c3cn4nc(OC)sc4n3)oc2c1 | 
12 nM | 1.9 µM·h | COc1cc(OCc2cc(C(F)(F)F)ccc2C)c2cc(-c3cn4nc(OC)sc4n3)oc2c1 | 
3 nM | 0.66 µM·h | COc1cc(OCc2cccc(OCc3ccccc3)c2)c2cc(-c3cn4nc(OC)sc4n3)oc2c1 | 
 |  | COc1cc(OCc2csc(-c3ccc(C(N)=O)cc3)n2)c2cc(-c3cn4nc(OC)sc4n3)oc2c1 | Drug uptake [1]: Bld
46 nM | 5.5 µM·h | COc1cc(OCc2ccccc2)c2cc(-c3cn4nc(OC)sc4n3)oc2c1 | 
4.7 nM | 3 µM·h | COc1cc(OCc2csc(-c3ccc(C(=O)N4CCCC4)cc3)n2)c2cc(-c3cn4nc(OC)sc4n3)oc2c1 | 
6.7 nM | 0.92 µM·h | COc1cc(OCc2csc(-c3ccc(C(C)(C)O)cc3)n2)c2cc(-c3cn4nc(OC)sc4n3)oc2c1 | 
140 nM | 10.9 µM·h | COc1cc(OCc2cccc(-c3ccoc3)c2)c2cc(-c3cn4nc(OC)sc4n3)oc2c1 | 
19 nM | 3.5 µM·h | COc1cc(OCc2cccc(-c3ccc(OC)nc3)c2)c2cc(-c3cn4nc(OC)sc4n3)oc2c1 | 
230 nM |  | COc1cc(OCc2nc(N3CCOCC3)sc2C)c2cc(-c3cn4nc(OC)sc4n3)oc2c1 | bioavailability [3]: 19%; Vdss [4]: 1.4 L/kg; bioavailability [5]: 26%; AUClast [2]: 23.7 µM·h; Vdss [6]: 11 L/kg; Vdss [7]: 5.9 L/kg; F [8]: 21%
94 nM | 7.4 µM·h | COc1cc(OCc2ccnc(-c3ccccc3)n2)c2cc(-c3cn4nc(OC)sc4n3)oc2c1 | 
9 nM | 1.3 µM·h | COc1cc(OCc2csc(-c3ccc(C(F)(F)F)cc3)n2)c2cc(-c3cn4nc(OC)sc4n3)oc2c1 | 
22 nM | 3.3 µM·h | COc1ccc(-c2cccc(COc3cc(OC)cc4oc(-c5cn6nc(OC)sc6n5)cc34)c2)nc1 | 
86 nM | 7.5 µM·h | COc1cc(OCc2ccnc(N3CCOCC3)n2)c2cc(-c3cn4nc(OC)sc4n3)oc2c1 | 
2 nM | 0.26 µM·h | COc1cc(OCc2csc(-c3ccc(S(C)(=O)=O)cc3)n2)c2cc(-c3cn4nc(OC)sc4n3)oc2c1 | 

From ChEMBL document CHEMBL5143717 (J Med Chem, 2022)
